In US8039233B2, “Nucleic acid sequences and their use in methods to identify umami modulatiors” (Givaudan S.A., priority 2007, dated 2011):
Entries after “also recorded” stand apart in the source; their conditions may differ.

What was measured:
[1] = molecular target: T1, hCaSR (Homo sapiens, UniProt P41180, E1011Q); assay: Fluo-4 calcium assay, cells transfected with hCaSR; format: cell-based; details: Calcium Chloride 2 mM, 745047-97-6 25 μM, MSG 2.5 mM + IMP 0.2 mM; for hCaSR AVG (mean ΔF/F): HEK293T/Gα16-gustducin 44 cells, six replicates
T1 construct: For hCaSR, a commercially available pCMV-based vector construct which is based on the full length cDNA was used; host or cells: HEK293T cells stably expressing Galpha16-gustducin 44, transiently transfected with 75 ng of vector
T1 sequence (P41180 20-1078 E1011Q): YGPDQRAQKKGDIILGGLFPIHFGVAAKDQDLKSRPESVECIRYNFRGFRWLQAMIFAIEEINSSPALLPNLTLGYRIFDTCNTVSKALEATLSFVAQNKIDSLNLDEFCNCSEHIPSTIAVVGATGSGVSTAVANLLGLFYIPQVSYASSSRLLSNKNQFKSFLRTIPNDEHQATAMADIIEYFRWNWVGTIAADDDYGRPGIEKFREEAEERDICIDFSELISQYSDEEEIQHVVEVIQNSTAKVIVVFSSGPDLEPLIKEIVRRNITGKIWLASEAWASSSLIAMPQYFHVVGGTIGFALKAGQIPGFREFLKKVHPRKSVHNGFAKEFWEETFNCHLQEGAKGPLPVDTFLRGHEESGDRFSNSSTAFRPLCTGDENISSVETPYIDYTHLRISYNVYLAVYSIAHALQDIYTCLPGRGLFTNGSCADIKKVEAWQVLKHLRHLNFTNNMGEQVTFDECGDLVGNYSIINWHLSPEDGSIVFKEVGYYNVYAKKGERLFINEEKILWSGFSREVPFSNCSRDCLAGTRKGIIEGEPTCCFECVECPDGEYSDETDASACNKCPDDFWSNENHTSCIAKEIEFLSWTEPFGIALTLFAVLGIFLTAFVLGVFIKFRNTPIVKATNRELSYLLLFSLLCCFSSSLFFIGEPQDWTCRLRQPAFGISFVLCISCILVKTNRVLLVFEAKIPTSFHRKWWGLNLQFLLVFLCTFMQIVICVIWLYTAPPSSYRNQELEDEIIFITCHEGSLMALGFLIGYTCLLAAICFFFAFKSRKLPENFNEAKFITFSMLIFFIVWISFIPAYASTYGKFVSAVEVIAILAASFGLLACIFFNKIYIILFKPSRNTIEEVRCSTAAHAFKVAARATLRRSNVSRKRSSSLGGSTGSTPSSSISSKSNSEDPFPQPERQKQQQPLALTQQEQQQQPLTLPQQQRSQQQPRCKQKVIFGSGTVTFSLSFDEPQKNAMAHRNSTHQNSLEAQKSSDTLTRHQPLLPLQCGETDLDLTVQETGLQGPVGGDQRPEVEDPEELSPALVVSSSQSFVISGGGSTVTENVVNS
Procedure: (§1) Fluo-4 is a fluorescent indicator for intracellular calcium and allows for determination of changes in the intracellular calcium concentration, in particular an increase in response to receptor activation occurring after ligand addition.
(§2) HEK293 cells stably expressing Gα16-gustducin 44 were used as host cells and transfected with various constructs as described in example 4.
(§3) Black, clear-bottom 96-well plates were used for all assays. They were seeded the day before with 8500 transfected cells per well and maintained at 37° C. overnight in an a growth medium appropriate for the cells used. For HEK293 cells, Dulbecco's Modified Eagle medium containing high glucose, L-glutamine, pyroxidine hydrochloride, and supplemented with 10% fetal bovine serum was used for growth and maintenance of the HEK293 cells.
(§4) At the time of the assay, the growth medium was discarded and cells were incubated for 1 hour (at 37° C. in the dark) with 50 μl of a calcium assay solution consisting of 1.5 μM Fluo-4 AM (Molecular Probes™, Invitrogen, US) and 2.5 μM probenicid (Sigma-Aldrich) dissolved in a reduced calcium C1 buffer solution. Reduced calcium C1 buffer solution contains 130 mM NaCl, 5 mM KCl, 10 mM Hepes, 0.5 mM CaCl2 (reduced from 2 mM) and 10 mM glucose (pH 7.4).
(§5) After the initial 1 hour loading period, the plates were washed 5 times with 100 μl per well of reduced calcium C1 buffer using an automated plate washer (BioTek) and after washing, the plate was further incubated for 30 minutes at room temperature in the dark to allow for complete de-esterification of the Fluo-4-AM. The buffer solutions were discarded, the plate was washed 5 times with 100 μl reduced calcium C1 wash buffer and finally the cells were reconstituted in 180 μl of reduced calcium C1 wash buffer.
(§6) For assay reading, the plate was placed in a FLIPR (fluorescence imaging plate reader (FLIPR-Tetra, Molecular Devices)), and receptor activation was initiated following addition of 20 μl of a 10× concentrated ligand stock solution, which were prepared in reduced calcium C1 buffer.
(§7) Fluorescence was continuously monitored for 15 seconds prior to ligand addition and for 105 seconds after ligand addition (45-105 sec may be sufficient).
(§8) Receptor activation is determined by the increase in peak fluorescence (F) normalized to the baseline fluorescence (F0). The data are normalized using the following equation: ΔF/F=(F−F0)/F0, where F is the peak fluorescence signal and F0 is the baseline fluorescence signal, wherein the baseline fluorescence represents the mean fluorescence calculated for the first 10 to 15 seconds prior to ligand addition. […]
As a negative control, mock transfected cells were exposed to the same concentration of ligand and the concentration of calcium traces not corresponding to a signal was determined. […]

[2] = system: CSR:T1R1 chimeric homomer; assay: Fluo-4 calcium assay, cells transfected with CSR:T1R1; format: cell-based, human; details: Calcium Chloride 2 mM, 745047-97-6 25 μM, MSG 2.5 mM + IMP 0.2 mM; for CSR:T1R1 AVG (mean ΔF/F): HEK293T/Gα16-gustducin 44 cells, six replicates
Procedure: as §1, §2, §3, §4, §5, §6, §7
(§9) Receptor activation is determined by the increase in peak fluorescence (F) normalized to the baseline fluorescence (F0). The data are normalized using the following equation: ΔF/F=(F−F0)/F0, where F is the peak fluorescence signal and F0 is the baseline fluorescence signal, wherein the baseline fluorescence represents the mean fluorescence calculated for the first 10 to 15 seconds prior to ligand addition.
(§10) This value obtained corresponds to the calcium increase of the cell in response to a direct or indirect interaction with the transfected receptor (“signal”).
(§11) As a negative control, mock transfected cells were exposed to the same concentration of ligand and the concentration of calcium traces not corresponding to a signal was determined.
(§12) HEK293T cells that stably express Gα16-gustducin 44 (formed as described in WO 2004/055048) were transfected with the CSR::T1R1, CSR::T1R3 constructs, or with hCaSR as follows:
On day 0, the HEK293T/Gα16-gustducin 44 cells were plated in 96-well black, clear-bottom plates at a density of 8500 cells per well and grown overnight in selective growth media. […]

[3] = system: Mock transfected HEK293T/Gα16-gustducin 44 cells; assay: Fluo-4 calcium assay, mock transfection (negative control); format: cell-based; details: Calcium Chloride 2 mM, 745047-97-6 25 μM; for Neg. control (mock transfection) AVG (mean ΔF/F): mock transfected cells, six replicates, MSG 2.5 mM + IMP 0.2 mM
Procedure: as §1, §2, §3
as §4, with “Reduced calcium C1 buffer solution contains 130 mM NaCl, 5 mM KCl, 10 mM Hepes, 0.5 mM CaCl2 (reduced from 2 mM) and 10 mM glucose (pH 7.4).” left out
as §6, §7, §8, §11
The intracellular calcium response following stimulation with various ligands was determined in HEK293T cells stably expressing Gα16-gustducin 44 and transfected with CSR:T1R1 and/or CSR:T1R3 chimeric constructs. […]
The transfections were performed as described in example 4. Results were calculated as described in example 1 (data indicates the normalized increase in fluorescence over baseline after stimulation (ΔF/F); the mean (AVG) and the ±Standard deviation (STD) of six replicate experiments is given). […]
The calcium mobilization signals obtained are increase in peak fluorescence (F) normalized to the baseline fluorescence (F0). […]

[4] = system: CSR:T1R1/CSR:T1R3 chimeric heterodimer; assay: Fluo-4 calcium assay, cells transfected with CSR:T1R1 and CSR:T1R3; format: cell-based, human; details: for response (calcium signal) of CSR:T1R1/CSR:T1R3 chimeric heterodimer, in words / CSR:T1R1/CSR:T1R3 AVG (mean ΔF/F): Calcium Chloride 2 mM, 745047-97-6 25 μM; for CSR:T1R1/CSR:T1R3 AVG (mean ΔF/F): HEK293T/Gα16-gustducin 44 cells, six replicates, MSG 2.5 mM + IMP 0.2 mM; for signal in CSR:T1R1/CSR:T1R3 cells as magnitude of signals obtained in cells transfected with the hCaSR receptor: relative to hCaSR transfected cells
Procedure: as §1, §2, §3, §4, §5, §6, §7, §9, §10, §11, §12
On day 0, the HEK293T/Gα16-gustducin 44 cells were plated in 96-well black, clear-bottom plates at a density of 8500 cells per well and grown overnight in selective growth media. On day 1, the media was changed to an antibiotic-free and serum-free growth medium and the cells were transfected using 75 ng each of CSR:T1R1 and CSR:T1R3 (total 150 ng), T1R1 and T1R3 (total 150 ng), or 75 ng hCaSR vector construct DNA and 0.3 μl of Lipofectamine 2000 (Invitrogen).
For transfection of either the CSR:T1R1/CSR:T1R3 heterodimer, 75 ng of each vector construct was combined for a total of 150 ng per pair and used together with 0.3 μl of Lipofectamine 2000. 75 ng of hCaSR vector DNA was used for this calcium-sensing monomeric GPCR […]

Compound	hCaSR AVG (mean ΔF/F) [1]	response (calcium signal) of CSR:T1R1 chimeric homomer, in words [2]	CSR:T1R1 AVG (mean ΔF/F) [2]	response in mock transfected negative control, in words [3]	Neg. control (mock transfection) AVG (mean ΔF/F) [3]	response (calcium signal) of CSR:T1R1/CSR:T1R3 chimeric heterodimer, in words [4]	CSR:T1R1/CSR:T1R3 AVG (mean ΔF/F) [4]	signal in CSR:T1R1/CSR:T1R3 cells as magnitude of signals obtained in cells transfected with the hCaSR receptor [4]	response (calcium signal) of hCaSR, in words ([1]; listed as calcium)	response (calcium signal) of hCaSR, in words ([1]; listed as calcium chloride)	response (calcium signal) of CSR:T1R1 chimeric homomer, in words ([2]; listed as calcium)	response (calcium signal) of CSR:T1R1 chimeric homomer, in words ([2]; listed as calcium chloride)	response (calcium signal) of CSR:T1R1/CSR:T1R3 chimeric heterodimer, in words ([4]; listed as calcium)	response (calcium signal) of CSR:T1R1/CSR:T1R3 chimeric heterodimer, in words ([4]; listed as calcium chloride)
COc1cc(C)ccc1CNC(=O)C(=O)NCCc1ccccn1 [745047-97-6-oxalamide, N-(2-Methoxy-4-methyl-benzyl)-N′-(2-pyridin-2-yl-ethyl)-oxalamide]	0.04	significant increase of the signal; also recorded: activated	0.31	No response	0.03	significant increase of the signal; also recorded: significantly higher the background signals; also recorded: activated	0.43	approximately 50%	–	–	–	–	–	–
[Ca+2].[Cl-].[Cl-] [Calcium, Calcium Chloride]	1.44	–	0.78	No response	0.24	–	0.72	approximately 50%	react to calcium	responded	react to calcium; also recorded: activated	significant increase of the signal	react to calcium; also recorded: activated	significant increase of the signal; also recorded: significantly higher the background signals
